The values that follow come from ChEMBL document CHEMBL5113478, “7-Azaindole, 2,7-diazaindole, and 1H-pyrazole as core structures for novel anticancer agents with potential chemosensitizing properties” (Eur J Med Chem, 2022).

Format in all cases: functional
Assay [1] has as its system MOLT-4. The experiment in a line: Antiproliferative activity against human MOLT-4 cells assessed as […] cell proliferation at 10 uM incubated for 48 hrs by WST-1 assay relative to control.
Assay [2] deals with MOLT-4. The experiment in a line: Antiproliferative activity against human MOLT-4 cells assessed as […] cell proliferation at 10 uM incubated for 48 hrs in presence of 2 uM of CDDP by WST-1 assay relative to control.
Assay [3] deals with Jurkat. In words: Antiproliferative activity against human Jurkat cells assessed as […] cell proliferation at 10 uM incubated for 48 hrs by WST-1 assay relative to control.
The subject of assay [4] is Jurkat. In words: Antiproliferative activity against human Jurkat cells assessed as […] cell proliferation at 10 uM incubated for 48 hrs in presence of 2 uM of CDDP by WST-1 assay relative to control.
The test system of assay [5] is A2780. In words: Antiproliferative activity against human A2780 cells assessed as […] cell proliferation at 10 uM incubated for 48 hrs by WST-1 assay relative to control.
The subject of assay [6] is A2780. The experiment in a line: Antiproliferative activity against human A2780 cells assessed as […] cell proliferation at 10 uM incubated for 48 hrs in presence of 2 uM of CDDP by WST-1 assay relative to control.
Assay [7] deals with MCF7. The experiment in a line: Antiproliferative activity against human MCF7 cells assessed as […] cell proliferation at 10 uM incubated for 48 hrs by WST-1 assay relative to control.
Assay [8] deals with MCF7. The experiment in a line: Antiproliferative activity against human MCF7 cells assessed as […] cell proliferation at 10 uM incubated for 48 hrs in presence of 10 uM of CDDP by WST-1 assay relative to control.
Assay [9] deals with A549. In words: Antiproliferative activity against human A549 cells assessed as […] cell proliferation at 10 uM incubated for 48 hrs by WST-1 assay relative to control.
For assay [10], the system named is A549. The experiment in a line: Antiproliferative activity against human A549 cells assessed as […] cell proliferation at 10 uM incubated for 48 hrs in presence of 15 uM of CDDP by WST-1 assay relative to control.
Assay [11] deals with SAOS-2. In words: Antiproliferative activity against human SAOS-2 cells assessed as […] cell proliferation at 10 uM incubated for 48 hrs by WST-1 assay relative to control.
Assay [12] relates to SAOS-2. In words: Antiproliferative activity against human SAOS-2 cells assessed as […] cell proliferation at 10 uM incubated for 48 hrs in presence of 15 uM of CDDP by WST-1 assay relative to control.
The subject of assay [13] is PANC-1. In words: Antiproliferative activity against human PANC-1 cells assessed as […] cell proliferation at 10 uM incubated for 48 hrs by WST-1 assay relative to control.
The test system of assay [14] is PANC-1. In words: Antiproliferative activity against human PANC-1 cells assessed as […] cell proliferation at 10 uM incubated for 48 hrs in presence of 15 uM of CDDP by WST-1 assay relative to control.
Assay [15] has as its system HT-29. In words: Antiproliferative activity against human HT-29 cells assessed as […] cell proliferation at 10 uM incubated for 48 hrs by WST-1 assay relative to control.
Assay [16] has as its system HT-29. In words: Antiproliferative activity against human HT-29 cells assessed as […] cell proliferation at 10 uM incubated for 48 hrs in presence of 15 uM of CDDP by WST-1 assay relative to control.
Assay [17] has as its system HeLa. The experiment in a line: Antiproliferative activity against human HeLa cells assessed as […] cell proliferation at 10 uM incubated for 48 hrs by WST-1 assay relative to control.
The test system of assay [18] is HeLa. The experiment in a line: Antiproliferative activity against human HeLa cells assessed as […] cell proliferation at 10 uM incubated for 48 hrs in presence of 15 uM of CDDP by WST-1 assay relative to control.

Take `CC(C)S(=O)(=O)c1ccc(-c2cnc3[nH]cc(CN4CCc5ccccc5C4)c3c2)cc1`: the Activity with MOLT-4 [1] is 101%; in the assay with MOLT-4 [2], 62%; in the assay with Jurkat [3], 101%; in the assay on Jurkat [4], 62%; in the assay on A2780 [5], 101%; in the assay with A2780 [6], 62%. For the same compound, the Activity with MCF7 [7] was 101%; in the assay on MCF7 [8], 62%; with A549 [9], 101%; with A549 [10], 62%; in the assay on SAOS-2 [11], 101%; with SAOS-2 [12], 62%. Further, the Activity worked out at 101% in the assay with PANC-1 [13]; 62% in the assay on PANC-1 [14]; 62% with HT-29 [16]; 101% in the assay on HeLa [17]; 62% with HeLa [18]. In the assay on HT-29 [15], the “Cell viability relative to control” value turned out to be 101%.

`CC(C)S(=O)(=O)c1ccc(-c2cnc3[nH]cc(C(=O)NCc4ccccc4)c3c2)cc1`: the Activity in the assay with MOLT-4 [1] was determined as 83%; in the assay on MOLT-4 [2], 65%; in the assay with Jurkat [3], 83%; in the assay on Jurkat [4], 65%; with A2780 [5], 83%; with A2780 [6] it was 65%. The Activity worked out at 83% with MCF7 [7]; 65% in the assay with MCF7 [8]; 83% in the assay on A549 [9]; 65% in the assay on A549 [10]; 83% in the assay on SAOS-2 [11]; 65% with SAOS-2 [12]. Moreover, the Activity with PANC-1 [13] was 83%; in the assay on PANC-1 [14], 65%; in the assay on HT-29 [16], 65%; with HeLa [17] it was 83%; in the assay on HeLa [18], 65%. Further, the “Cell viability relative to control” value in the assay on HT-29 [15] worked out at 83%.

On to `CS(=O)(=O)c1ccc(-c2cnc(N)c(C(=O)Nc3ccccc3)n2)cc1`, for which the Activity in the assay with MOLT-4 [1] stood at 66%; in the assay with MOLT-4 [2], 16%; in the assay on Jurkat [3] it was 66%; in the assay with Jurkat [4], 16%; in the assay with A2780 [5], 66%; in the assay on A2780 [6] it was 16%. Also, the Activity with MCF7 [7] is listed as 66%; in the assay with MCF7 [8], 16%; in the assay with A549 [9], 66%; with A549 [10], 16%; in the assay on SAOS-2 [11], 66%; with SAOS-2 [12] it was 16%. Moreover, the Activity in the assay with PANC-1 [13] was 66%; in the assay on PANC-1 [14], 16%; in the assay with HT-29 [16], 16%; in the assay with HeLa [17] it was 66%; with HeLa [18], 16%. Also, the “Cell viability relative to control” value in the assay on HT-29 [15] was determined as 66%.

In the case of `CC(C)S(=O)(=O)c1ccc(-c2cc(-c3nc(-c4ccccc4)no3)n[nH]2)cc1`, the Activity is 101% with MOLT-4 [1]; 62% in the assay with MOLT-4 [2]; 101% in the assay on Jurkat [3]; 62% in the assay on Jurkat [4]; 101% with A2780 [5]; 62% in the assay with A2780 [6]. In addition, the Activity is given as 101% in the assay with MCF7 [7]; 62% in the assay on MCF7 [8]; 101% in the assay with A549 [9]; 62% in the assay with A549 [10]; 101% in the assay on SAOS-2 [11]; 62% in the assay with SAOS-2 [12]. The Activity in the assay on PANC-1 [13] was 101%; in the assay with PANC-1 [14], 62%; with HT-29 [16] it was 62%; with HeLa [17] it was 101%; in the assay on HeLa [18], 62%. For the same compound, the “Cell viability relative to control” value in the assay with HT-29 [15] amounted to 101%.

With `CC(C)S(=O)(=O)c1ccc(-c2cnc3[nH]nc(C(=O)N4CCc5ccccc5C4)c3c2)cc1`, the Activity in the assay on MOLT-4 [1] is given as 96%; in the assay on MOLT-4 [2] it was 61%; with Jurkat [3], 96%; in the assay on Jurkat [4] it was 61%; with A2780 [5], 96%; in the assay on A2780 [6], 61%. In addition, the Activity with MCF7 [7] was 96%; in the assay with MCF7 [8], 61%; in the assay on A549 [9], 96%; with A549 [10] it was 61%; in the assay on SAOS-2 [11], 96%; in the assay with SAOS-2 [12] it was 61%. Besides, the Activity was found to be 96% in the assay on PANC-1 [13]; 61% with PANC-1 [14]; 61% with HT-29 [16]; 96% in the assay on HeLa [17]; 61% with HeLa [18]. The “Cell viability relative to control” value with HT-29 [15] came to 96%.

For the compound `CS(=O)(=O)c1ccc(-c2cnc3[nH]c(C(=O)N4CCC(c5ccccc5)CC4)cc3c2)cc1`, the Activity worked out at 93% with MOLT-4 [1]; 66% in the assay on MOLT-4 [2]; 93% in the assay on Jurkat [3]; 66% in the assay on Jurkat [4]; 93% in the assay with A2780 [5]; 66% in the assay with A2780 [6]. Also, the Activity with MCF7 [7] is listed as 93%; with MCF7 [8], 66%; in the assay with A549 [9] it was 93%; in the assay with A549 [10] it was 66%; in the assay with SAOS-2 [11] it was 93%; in the assay with SAOS-2 [12], 66%. For the same compound, the Activity stood at 93% in the assay with PANC-1 [13]; 66% with PANC-1 [14]; 66% in the assay with HT-29 [16]; 93% with HeLa [17]; 66% in the assay with HeLa [18]. Besides, the “Cell viability relative to control” value in the assay with HT-29 [15] was found to be 93%.

Take `CC(C)S(=O)(=O)c1ccc(-c2cc(C(=O)Nc3ccc(N(C)C)cc3)n[nH]2)cc1`: the Activity is recorded as 93% in the assay with MOLT-4 [1]; 65% in the assay with MOLT-4 [2]; 93% in the assay on Jurkat [3]; 65% in the assay with Jurkat [4]; 93% in the assay with A2780 [5]; 65% in the assay with A2780 [6]. The Activity stood at 93% with MCF7 [7]; 65% in the assay with MCF7 [8]; 93% in the assay on A549 [9]; 65% with A549 [10]; 93% in the assay on SAOS-2 [11]; 65% in the assay with SAOS-2 [12]. The Activity with PANC-1 [13] stood at 93%; in the assay with PANC-1 [14], 65%; in the assay on HT-29 [16], 65%; in the assay with HeLa [17], 93%; with HeLa [18], 65%. Also, the “Cell viability relative to control” value with HT-29 [15] came to 93%.

Regarding `CS(=O)(=O)c1ccc(-c2cc(C(=O)NCc3ccccc3)n[nH]2)cc1`, the Activity was 95% in the assay on MOLT-4 [1]; 63% in the assay with MOLT-4 [2]; 95% in the assay on Jurkat [3]; 63% in the assay on Jurkat [4]; 95% with A2780 [5]; 63% in the assay on A2780 [6]. Also, the Activity in the assay on MCF7 [7] stood at 95%; in the assay with MCF7 [8], 63%; in the assay on A549 [9], 95%; with A549 [10], 63%; in the assay on SAOS-2 [11] it was 95%; with SAOS-2 [12] it was 63%. Besides, the Activity in the assay on PANC-1 [13] was determined as 95%; in the assay on PANC-1 [14], 63%; in the assay on HT-29 [16], 63%; with HeLa [17] it was 95%; with HeLa [18], 63%. Further, the “Cell viability relative to control” value in the assay with HT-29 [15] is 95%.

Turning to `CC(C)S(=O)(=O)c1ccc(-c2cnc3[nH]cc(C(=O)N4CCc5ccccc5C4)c3c2)cc1`, the Activity in the assay with MOLT-4 [1] was determined as 85%; in the assay on MOLT-4 [2], 66%; with Jurkat [3], 85%; in the assay with Jurkat [4] it was 66%; with A2780 [5] it was 85%; in the assay on A2780 [6], 66%. Further, the Activity with MCF7 [7] is on record as 85%; in the assay with MCF7 [8], 66%; in the assay on A549 [9], 85%; with A549 [10], 66%; in the assay on SAOS-2 [11], 85%; in the assay with SAOS-2 [12], 66%. In addition, the Activity in the assay with PANC-1 [13] stood at 85%; in the assay with PANC-1 [14] it was 66%; in the assay on HT-29 [16] it was 66%; in the assay with HeLa [17], 85%; in the assay on HeLa [18], 66%. In addition, the “Cell viability relative to control” value with HT-29 [15] is on record as 85%.
